One test has as its target T1, XIAP BIR2-3 (Homo sapiens, UniProt P98170, C202A/C213G).
T1 construct: His-BIR2-3 (125-356, C202A/C213G, XIAP)
The experiment in a line: XIAP-BIR2-3 dimeric SMAC Peptide Homogeneous Time Resolved Fluorescence (HTRF) Assay. The conditions noted are these: 0.5 nM N-His-BIR2-3 (125-356, C202A/C213G, XIAP), 20 nM fluorescein labeled dimeric SMAC peptide; HTRF signal; read-out: XIAP BIR2-3 IC50. It is filed as binding. The procedure: B. […] Assays were performed in black, flat-bottom, 384-well plates. […] Compounds were dissolved at 3 mM in dimethylsulfoxide (DMSO) and evaluated at eleven serially diluted concentrations. IC50 and Ki values were derived by non-linear regression analysis.
(In general: TR-FRET usually uses a lanthanide donor and a delayed reading to cut background.)

For the next test, the target named is T2, XIAP BIR3 (Homo sapiens, UniProt P98170).
T2 construct: His-BIR3 (241-356, XIAP)
The experiment in a line: XIAP-BIR3/SMAC Homogeneous Time Resolved Fluorescence (HTRF) Assay. It is filed as binding. The conditions noted are these: 1 nM N-His-BIR3 (241-356, XIAP), 5 nM fluorescein labeled SMAC peptide; HTRF signal; read-out: XIAP BIR3 IC50. The procedure:
A. XIAP-BIR3/SMAC Homogeneous Time Resolved Fluorescence (HTRF) Assay Assays were performed in black, flat-bottom, 384-well plates. […] The reaction was incubated at room temperature for 60 minutes, following which 10 μl of mouse anti-6×His-terbium labeled Fab (Medarex, Cis-bio) was added to the reaction (40 μl) for an additional 30 minute incubation. […] Compounds were dissolved at 3 mM in dimethylsulfoxide (DMSO) and evaluated at eleven serially diluted concentrations. IC50 and Ki values were derived by non-linear regression analysis.

T2 sequence (P98170 241-356): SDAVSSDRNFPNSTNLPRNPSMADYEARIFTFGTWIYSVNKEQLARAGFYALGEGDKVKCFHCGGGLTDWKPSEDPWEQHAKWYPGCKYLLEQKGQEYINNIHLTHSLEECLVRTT
T1 sequence (P98170 125-356 C202A/C213G): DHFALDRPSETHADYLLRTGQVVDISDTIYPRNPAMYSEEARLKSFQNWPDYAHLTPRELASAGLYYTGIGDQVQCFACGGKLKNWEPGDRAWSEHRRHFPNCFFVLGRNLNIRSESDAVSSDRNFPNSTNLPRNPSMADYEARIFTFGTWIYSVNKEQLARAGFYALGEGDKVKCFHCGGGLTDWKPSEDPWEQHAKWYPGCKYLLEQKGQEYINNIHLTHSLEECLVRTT

As usually defined, the IC50 is the midpoint of a concentration-inhibition curve. For `CN[C@@H](C)C(=O)N[C@@H](CC1CCCCC1)C(=O)N1Cc2cc(C(=O)N[C@H]3C[C@@H](C(=O)N[C@@H]4CCCc5ccccc54)N(C(=O)[C@@H](NC(=O)[C@H](C)NC)C(C)(C)C)C3)ccc2C[C@H]1C(=O)N[C@@H]1CCCc2ccccc21` [Example 9, (S)-2-((S)-3-Cyclohexyl-2-((S)-2-(methylamino)propanamido)propanoyl)-N^7-((3S,5S)-1-((S)-3,3-dimethyl-2-((S)-2-(methylamino)propanamido)butanoyl)-5-(((R)-1,2,3,4-tetrahydronaphthalen-1-yl)carbamoyl)pyrrolidin-3-yl)-N^3-((R)-1,2,3,4-tetrahydronaphthalen-1-yl)-1,2,3,4-tetrahydroisoquinoline-3,7-dicarboxamide], the half-inhibitory concentration (IC50) on XIAP BIR2-3 turned out to be 3 nM; on XIAP BIR3, 33 nM.
Consider `CN[C@@H](C)C(=O)N[C@H](C(=O)N1C[C@@H](NC(=O)c2ccc3c(c2)CN(C(=O)[C@@H](NC(=O)[C@H](C)NC)C24CC5CC(CC(C5)C2)C4)[C@H](C(=O)NC2CCCc4ccccc42)C3)C[C@H]1C(=O)NC1CCCc2ccccc21)C(C)(C)C` (stereo partly drawn) [Example 10, (S)-2-((S)-2-((3S,5S,7S)-Adamantan-1-yl)-2-((S)-2-(methylamino)propanamido)acetyl)-N^7-((3S,5S)-1-((S)-3,3-dimethyl-2-((S)-2-(methylamino)propanamido)butanoyl)-5-(((R)-1,2,3,4-tetrahydronaphthalen-1-yl)carbamoyl)pyrrolidin-3-yl)-N^3-((R)-1,2,3,4-tetrahydronaphthalen-1-yl)-1,2,3,4-tetrahydroisoquinoline-3,7-dicarboxamide], for which the figures for the IC50 at XIAP BIR2-3 and on XIAP BIR3 were 4 nM and 63 nM, respectively.
The like results for `CN[C@@H](C)C(=O)N[C@@H](Cc1cc(F)cc(F)c1)C(=O)N1Cc2cc(C(=O)N[C@H]3C[C@@H](C(=O)N[C@@H]4CCCc5ccccc54)N(C(=O)[C@@H](NC(=O)[C@H](C)NC)C(C)(C)C)C3)ccc2C[C@H]1C(=O)N[C@@H]1CCCc2ccccc21` [Example 11, (S)-2-((S)-3-(3,5-Difluorophenyl)-2-((S)-2-(methylamino)propanamido)propanoyl)-N^7-((3S,5S)-1-((S)-3,3-dimethyl-2-((S)-2-(methylamino)propanamido)butanoyl)-5-(((R)-1,2,3,4-tetrahydronaphthalen-1-yl)carbamoyl)pyrrolidin-3-yl)-N^3-((R)-1,2,3,4-tetrahydronaphthalen-1-yl)-1,2,3,4-tetrahydroisoquinoline-3,7-dicarboxamide] were, in that order, 10 nM and 25 nM.
On to `CN[C@@H](C)C(=O)N[C@H](C(=O)N1Cc2cc(C(=O)N[C@H]3C[C@@H](C(=O)N[C@@H]4CCCc5ccccc54)N(C(=O)[C@@H](NC(=O)[C@H](C)NC)C(C)(C)C)C3)ccc2C[C@H]1C(=O)N[C@@H]1CCCc2ccccc21)C1CCCC1` [Example 12, (S)-2-((S)-2-Cyclopentyl-2-((S)-2-(methylamino)propanamido)acetyl)-N^7-((3S,5S)-1-((S)-3,3-dimethyl-2-((S)-2-(methylamino)propanamido)butanoyl)-5-(((R)-1,2,3,4-tetrahydronaphthalen-1-yl)carbamoyl)pyrrolidin-3-yl)-N^3-((R)-1,2,3,4-tetrahydronaphthalen-1-yl)-1,2,3,4-tetrahydroisoquinoline-3,7-dicarboxamide], for which the IC50 at XIAP BIR2-3 was 15 nM; at XIAP BIR3, 19 nM.
The like results for `CN[C@@H](C)C(=O)N[C@H](C(=O)N1Cc2cc(C(=O)N[C@H]3C[C@@H](C(=O)NC4CCCc5ccccc54)N(C(=O)[C@@H](NC(=O)[C@H](C)NC)C(C)(C)C)C3)ccc2C[C@H]1C(=O)NC1CCCc2ccccc21)C1CCOCC1` (stereo partly drawn) [Example 13] were, in that order, 2 nM and 6 nM.
`CCN[C@@H](C)C(=O)N[C@H](C(=O)N1C[C@@H](NC(=O)c2ccc3c(c2)CN(C(=O)[C@@H](NC(=O)[C@H](C)NC)C(C)(C)C)[C@H](C(=O)N[C@@H]2CCCc4ccccc42)C3)C[C@H]1C(=O)N[C@@H]1CCCc2ccccc21)C(C)(C)C` [Example 14, (S)-2-((S)-3,3-Dimethyl-2-((S)-2-(methylamino)propanamido)butanoyl)-N^7-((3S,5S)-1-((S)-2-((S)-2-(ethylamino)propanamido)-3,3-dimethylbutanoyl)-5-(((R)-1,2,3,4-tetrahydronaphthalen-1-yl)carbamoyl)pyrrolidin-3-yl)-N^3-((R)-1,2,3,4-tetrahydronaphthalen-1-yl)-1,2,3,4-tetrahydroisoquinoline-3,7-dicarboxamide]: the figures for the IC50 on XIAP BIR2-3 and at XIAP BIR3 were 15 nM and 29 nM, respectively.
In the same order, the values of `CC[C@H](NC)C(=O)N[C@H](C(=O)N1C[C@@H](NC(=O)c2ccc3c(c2)CN(C(=O)[C@@H](NC(=O)[C@H](C)NC)C(C)(C)C)[C@H](C(=O)N[C@@H]2CCCc4ccccc42)C3)C[C@H]1C(=O)N[C@@H]1CCCc2ccccc21)C(C)(C)C` [Example 15, (S)-N^7-((3S,5S)-1-((S)-3,3-Dimethyl-2-((S)-2-(methylamino)butanamido)butanoyl)-5-(((R)-1,2,3,4-tetrahydronaphthalen-1-yl)carbamoyl)pyrrolidin-3-yl)-2-((S)-3,3-dimethyl-2-((S)-2-(methylamino)propanamido)butanoyl)-N^3-((R)-1,2,3,4-tetrahydronaphthalen-1-yl)-1,2,3,4-tetrahydroisoquinoline-3,7-dicarboxamide] are 5 nM and 16 nM.
Turning to `CCC(CC)[C@H](NC(=O)[C@H](CC)NC)C(=O)N1C[C@@H](NC(=O)c2ccc3c(c2)CN(C(=O)[C@@H](NC(=O)[C@H](C)NC)C(C)(C)C)[C@H](C(=O)N[C@@H]2CCCc4ccccc42)C3)C[C@H]1C(=O)N[C@@H]1CCCc2ccccc21` [Example 16, (S)-2-((S)-3,3-Dimethyl-2-((S)-2-(methylamino)propanamido)butanoyl)-N^7-((3S,5S)-1-((S)-3-ethyl-2-((S)-2-(methylamino)butanamido)pentanoyl)-5-(((R)-1,2,3,4-tetrahydronaphthalen-1-yl)carbamoyl)pyrrolidin-3-yl)-N^3-((R)-1,2,3,4-tetrahydronaphthalen-1-yl)-1,2,3,4-tetrahydroisoquinoline-3,7-dicarboxamide], the results for the IC50 on XIAP BIR2-3 and on XIAP BIR3 were 10 nM and 19 nM, respectively.
In the same order, the values of `CCC(CC)[C@H](NC(=O)[C@H](C)NC)C(=O)N1C[C@@H](NC(=O)c2ccc3c(c2)CN(C(=O)[C@@H](NC(=O)[C@H](C)NC)C(C)(C)C)[C@H](C(=O)N[C@@H]2CCCc4ccccc42)C3)C[C@H]1C(=O)N[C@@H]1CCCc2ccccc21` [Example 17, (S)-2-((S)-3,3-Dimethyl-2-((S)-2-(methylamino)propanamido)butanoyl)-N^7-((3S,5S)-1-((S)-3-ethyl-2-((S)-2-(methylamino)propanamido)pentanoyl)-5-(((R)-1,2,3,4-tetrahydronaphthalen-1-yl)carbamoyl)pyrrolidin-3-yl)-N^3-((R)-1,2,3,4-tetrahydronaphthalen-1-yl)-1,2,3,4-tetrahydroisoquinoline-3,7-dicarboxamide] are 2 nM and 2 nM.

Source of the values: patent publication US8889712B2, “IAP antagonists” (Bristol-Myers Squibb Company, priority 2012, dated 2014).
